Legend:
[1] = tested on: oxazolone-induced ear swelling in CD-1 mice; test: mouse oxazolone-induced contact hypersensitization (MOCH), ear swelling; format: in vivo; conditions: topical to ear, 1 mg, mouse, 24 hours after oxazolone challenge; read-out: Oxazolone Ear Swelling (MOCH) % inhibition vs. Vehicle at 1 mg
Experimental: Several triphenylpropanamide compounds of this invention, having varying affinities for the human glucocorticoid receptor, were tested for topical antiinflammatory activity in mouse ear inflammation models. […] Compounds having receptor affinities closer to hydrocortisone were as nearly active as hydrocortisone in suppressing mouse oxazolone-induced contact hypersensitization (MOCH) and phorbol ester-induced ear edema. The in vivo studies of this example were conducted as follows.
In determining the MOCH using the compounds of this invention, albino male CD-1 mice, 7-9 weeks old were induced on the shaved abdomen with 50 μl of 3% oxazolone in acetone/corn oil (Day 0). On Day 5, a 20 μl volume of 2% oxazolone in acetone was applied to the dorsal left ear of the mouse. Compounds (made in ethanol/propylene glycol, 70:30) were applied to the left ear in 20 μl volume, one hour after oxazolone challenge. The right ear was not treated. The mice were sacrificed by carbon dioxide inhalation 24 hours after oxazolone challenge, the left and right ears were removed and a 7 mm biopsy was removed from each ear and weighed. The difference in biopsy weights between the right and left ears was calculated. Antiinflammatory effects of compounds were evident as an inhibition of the increase in ear weight.

[2] = tested on: human progesterone receptor (hPR); test: human progesterone receptor binding assay (displacement of 3H R5020 promegestone)
Experimental: A human progesterone receptor binding assay was performed in order to determine selectivity of the compounds, as follows. Human progesterone receptors were prepared from either insect cells (SF21) infected with baculovirus hPR A, or from a breast cancer cell line, T47D, which expresses high levels of endogenous hPR. The receptor binding reactions, with or without test compounds, were set up in 96-well microtiter plates which were previously siliconized with SIGMACOTE. The binding components, 3(H) R5020 Promegestone, a high affinity ligand for the progesterone receptors, glycerollmolybdate-containing buffer and unlabeled compounds were added to the wells using a combination of BIOMEK laboratory automation system and repeat pipettes. After overnight incubation, the samples were precipitated with polyethylene glycol and filtered through Whatman GF/F paper using a TOMTEK cell harvester. The filter mate with 96 samples were bound to a solid-phase scintillant and directly counted in the BETAPLATE counter. Only those compounds that were active in the human glucocorticoid receptor assay set forth in Example 30 were used for progesterone receptor binding to determine cross-reactivity profiles, if any. The activity of test compounds to displace 3(H) R5020 binding to hPR is expressed as percent inhibition at the two concentrations, 10^−6 and 10^−5 Molar.

Row | melting point [°C] | hPR % inh 10 μM [2] [%] | Compound | inhibition in vivo at 1 mg [1] [%]
1 | 88 to 89 | – | CCCC(=O)NCC(c1ccccc1)C(c1ccccc1)c1ccccc1 (stereo not shown) [Compound 60] | 27
2 | 114 to 115 | – | CC(C)C(=O)NCC(c1ccccc1)C(c1ccccc1)c1ccccc1 (stereo not shown) [Compound 61] | 17
3 | 78 to 79 | – | CCCCC(=O)NCC(c1ccccc1)C(c1ccccc1)c1ccccc1 (stereo not shown) [Compound 62] | 36
4 | 112 to 113 | – | CC(C)CC(=O)NCC(c1ccccc1)C(c1ccccc1)c1ccccc1 (stereo not shown) [Compound 63] | 3
5 | 143 to 144 | – | CC(C)(C)C(=O)NCC(c1ccccc1)C(c1ccccc1)c1ccccc1 (stereo not shown) [Compound 64] | 26
6 | 103 to 105.5 | – | CCOC(=O)CC(=O)NCC(c1ccccc1)C(c1ccccc1)c1ccccc1 (stereo not shown) [Compound 65] | 13
7 | 148.7 to 150.8 | – | O=C(Cc1ccccc1)NCC(c1ccccc1)C1c2ccccc2-c2ccccc21 (stereo not shown) [Compound 66] | 20
8 | 134.3 to 136.8 | – | COc1ccccc1CCC(=O)NCC(c1ccccc1)C1c2ccccc2CCc2ccccc21 (stereo not shown) [Compound 74] | 18
9 | 175 to 177.5 | – | O=C(Cc1cccs1)NCC(c1ccccc1)C1c2ccccc2CCc2ccccc21 (stereo not shown) [Compound 75] | 26
10 | 167.3 to 169.3 | – | O=C(Cc1ccsc1)NCC(c1ccccc1)C1c2ccccc2CCc2ccccc21 (stereo not shown) [Compound 76] | 23
11 | 172.1 to 173 | – | Cc1ccc(C(=O)NCC(c2ccccc2)C2c3ccccc3CCc3ccccc32)s1 (stereo not shown) [Compound 77] | 41
12 | 131 to 133.5 | – | COc1ccc(CC(=O)NCC2(c3ccccc3)CC2(c2ccccc2)c2ccccc2)cc1OC (stereo not shown) [Compound 79] | 18
13 | 128.5 to 130.5 | – | O=C(Cc1ccccc1Cl)NCC1(c2ccccc2)CC1(c1ccccc1)c1ccccc1 (stereo not shown) [Compound 80, N-(2chlorophenyl)acetyl-1,2,2-triphenylcyclopropylmethylamine] | 54
14 | 187.5 to 189 | – | COc1ccccc1CCC(=O)NCC1(c2ccccc2)CC1(c1ccccc1)c1ccccc1 (stereo not shown) [Compound 81] | 22
15 | 166 to 169 | – | O=C(NCC1(c2ccccc2)CC1(c1ccccc1)c1ccccc1)C(c1ccccc1)c1ccccc1 (stereo not shown) [Compound 82] | 23
16 | 149 to 150 | – | CCCC(=O)NCC1(c2ccccc2)CC1(c1ccccc1)c1ccccc1 (stereo not shown) [Compound 83] | -4
17 | 167 to 168 | – | CC(C)C(=O)NCC1(c2ccccc2)CC1(c1ccccc1)c1ccccc1 (stereo not shown) [Compound 84] | 54
18 | 122 to 123 | – | CCCCC(=O)NCC1(c2ccccc2)CC1(c1ccccc1)c1ccccc1 (stereo not shown) [Compound 87] | 22
19 | 135 to 137 | – | O=C(Cc1cccs1)NCC1(c2ccccc2)CC1(c1ccccc1)c1ccccc1 (stereo not shown) [Compound 88] | 29
20 | 130 to 135 | – | O=C(Cc1ccsc1)NCC1(c2ccccc2)CC1(c1ccccc1)c1ccccc1 (stereo not shown) [Compound 89] | 16
21 | 152.5 to 155 | – | O=C(NCC1(c2ccccc2)CC1(c1ccccc1)c1ccccc1)c1cccs1 (stereo not shown) [Compound 90] | 65
22 | 168 to 170.5 | – | Cc1ccc(C(=O)NCC2(c3ccccc3)CC2(c2ccccc2)c2ccccc2)s1 (stereo not shown) [Compound 91] | 13
23 | 209 to 210 | – | O=C(NCC1(c2ccccc2)CC1(c1ccccc1)c1ccccc1)Nc1ccccc1 (stereo not shown) [Compound 92] | 42
24 | – | 41 | O=C(Cc1cc(C(F)(F)F)cc(C(F)(F)F)c1)NCC(c1ccc(C(F)(F)F)cc1)C(c1ccccc1)c1ccccc1 (stereo not shown) [Compound 151] | –
25 | – | 41 | Cc1ccc(CC(=O)NCC(c2ccc(C(F)(F)F)cc2)C(c2ccccc2)c2ccccc2)cc1 (stereo not shown) [Compound 152] | –
26 | – | 34 | O=C(Cc1ccc([N+](=O)[O-])cc1)NCC(c1ccc(C(F)(F)F)cc1)C(c1ccccc1)c1ccccc1 (stereo not shown) [Compound 154] | –

Row | melting point [°C] | hPR % inh 10 μM [2] [%] | Compound | inhibition in vivo at 1 mg [1] [%]
27 | – | 29 | CN(C)c1ccc(CC(=O)NCC(c2ccc(C(F)(F)F)cc2)C(c2ccccc2)c2ccccc2)cc1 (stereo not shown) [Compound 155] | –
28 | – | 19 | O=C(Cc1ccc(-c2ccccc2)cc1)NCC(c1ccc(C(F)(F)F)cc1)C(c1ccccc1)c1ccccc1 (stereo not shown) [Compound 156] | –
29 | – | 10 | O=C(Cc1ccc2ccccc2c1)NCC(c1ccc(C(F)(F)F)cc1)C(c1ccccc1)c1ccccc1 (stereo not shown) [Compound 157] | –
30 | – | 16 | Cc1c(CC(=O)NCC(c2ccc(C(F)(F)F)cc2)C(c2ccccc2)c2ccccc2)sc2ccc(Cl)cc12 (stereo not shown) [Compound 158] | –
31 | – | 12 | CN(C)c1ccc(C=CC(=O)NCC(c2ccc(C(F)(F)F)cc2)C(c2ccccc2)c2ccccc2)cc1 (stereo not shown) [Compound 159] | –
32 | – | 10 | O=C(NCC(c1ccc(C(F)(F)F)cc1)C(c1ccccc1)c1ccccc1)c1cc(C(F)(F)F)cc(C(F)(F)F)c1 (stereo not shown) [Compound 160] | –
33 | – | 42 | O=C(Cc1ccccc1Cl)NCC(c1ccc(I)cc1)C(c1ccccc1)c1ccccc1 (stereo not shown) [Compound 161] | –
34 | – | 30 | O=C(Cc1ccc(Cl)cc1)NCC(c1ccc(I)cc1)C(c1ccccc1)c1ccccc1 (stereo not shown) [Compound 162] | –
35 | – | 44 | O=C(Cc1ccc(Cl)c(Cl)c1)NCC(c1ccc(I)cc1)C(c1ccccc1)c1ccccc1 (stereo not shown) [Compound 163] | –
36 | – | 40 | O=C(Cc1ccccc1F)NCC(c1ccc(I)cc1)C(c1ccccc1)c1ccccc1 (stereo not shown) [Compound 164] | –
37 | – | 79 | O=C(Cc1ccc(F)cc1)NCC(c1ccc(I)cc1)C(c1ccccc1)c1ccccc1 (stereo not shown) [Compound 165] | –
38 | – | 46 | O=C(Cc1ccc(C(F)(F)F)cc1)NCC(c1ccc(I)cc1)C(c1ccccc1)c1ccccc1 (stereo not shown) [Compound 166] | –
39 | – | 63 | O=C(Cc1cc(C(F)(F)F)cc(C(F)(F)F)c1)NCC(c1ccc(I)cc1)C(c1ccccc1)c1ccccc1 (stereo not shown) [Compound 167] | –
40 | – | 32 | COc1ccccc1CC(=O)NCC(c1ccc(I)cc1)C(c1ccccc1)c1ccccc1 (stereo not shown) [Compound 168] | –
41 | – | 45 | COc1cccc(CC(=O)NCC(c2ccc(I)cc2)C(c2ccccc2)c2ccccc2)c1 (stereo not shown) [Compound 169] | –
42 | – | 25 | COc1ccc(CC(=O)NCC(c2ccc(I)cc2)C(c2ccccc2)c2ccccc2)cc1 (stereo not shown) [Compound 170] | –
43 | – | 25 | COc1cc(CC(=O)NCC(c2ccc(I)cc2)C(c2ccccc2)c2ccccc2)cc(OC)c1 (stereo not shown) [Compound 171] | –
44 | – | 32 | O=C(NCC(c1ccc(I)cc1)C(c1ccccc1)c1ccccc1)c1ccccc1Cl (stereo not shown) [Compound 172] | –
45 | – | 72 | O=C(NCC(c1ccc(I)cc1)C(c1ccccc1)c1ccccc1)c1ccc(Cl)cc1 (stereo not shown) [Compound 173] | –
46 | – | 50 | O=C(NCC(c1ccc(I)cc1)C(c1ccccc1)c1ccccc1)c1ccc(Cl)c(Cl)c1 (stereo not shown) [Compound 174] | –
47 | – | 65 | O=C(NCC(c1ccc(I)cc1)C(c1ccccc1)c1ccccc1)c1ccccc1F (stereo not shown) [Compound 175] | –
48 | – | 68 | O=C(NCC(c1ccc(I)cc1)C(c1ccccc1)c1ccccc1)c1ccc(F)cc1 (stereo not shown) [Compound 176] | –
49 | – | 53 | O=C(NCC(c1ccc(I)cc1)C(c1ccccc1)c1ccccc1)c1ccc(C(F)(F)F)cc1 (stereo not shown) [Compound 177] | –
50 | – | 53 | O=C(NCC(c1ccc(I)cc1)C(c1ccccc1)c1ccccc1)c1cc(C(F)(F)F)cc(C(F)(F)F)c1 (stereo not shown) [Compound 178] | –
51 | – | 53 | O=C(NCC(c1ccc(I)cc1)C(c1ccccc1)c1ccccc1)c1cccs1 (stereo not shown) [Compound 179] | –

Row | Compound | melting point [°C] | hPR % inh 10 μM [2] [%] | inhibition in vivo at 1 mg [1] [%]
52 | O=C(NCC(c1ccccc1)C(c1ccccc1)c1ccccc1)Oc1ccccc1 (stereo not shown) [Compound 56] | 128 to 129 | – | 38
53 | O=C(NCC(c1ccccc1)C(c1ccccc1)c1ccccc1)Oc1ccc(F)cc1 (stereo not shown) [Compound 58] | 150 to 151 | – | 16
54 | O=C(NCC1(c2ccccc2)CC1(c1ccccc1)c1ccccc1)Oc1ccccc1 (stereo not shown) [Compound 96] | 146 to 147 | – | 52
55 | O=C(NCC1(c2ccccc2)CC1(c1ccccc1)c1ccccc1)Oc1ccc(Cl)cc1 (stereo not shown) [Compound 97] | 171 to 172 | – | 50
